In brackets after ≈: the same amount, converted by molar mass.
What was measured:
Format in all cases: functional
Staphylococcus [1] = test: Antimicrobial activity against MSCNS (methicillin-susceptible coagulase-negative staphylococci) GC 646; Not active; 0.5-128
Staphylococcus aureus [2] = test: Antimicrobial activity against Staphylococcus aureus GC 2216 (ATCC); Not active; 0.5-128
Staphylococcus aureus [3] = test: Antimicrobial activity against Staphylococcus aureus GC 4543 (MSSA); Not active; 0.5-128
Escherichia coli [4] = test: Antimicrobial activity against Escherichia coli GC 4559; Not active
Streptococcus pneumoniae [5] = test: Antimicrobial activity against Streptococcus pneumoniae GC1894 (PRSP) in the presence of 4% bovine serum albumin; Not active; 0.5-128
Enterococcus faecalis [6] = test: Antimicrobial activity against Enterococcus faecalis GC 2242 (VRE); Not active; 0.5-128
Escherichia coli [7] = test: Antimicrobial activity against Escherichia coli GC 4560; Not active; 0.5-128
Streptococcus pneumoniae [8] = test: Antimicrobial activity against Streptococcus pneumoniae GC1894 (PRSP); Not active; 0.5-128
Enterococcus faecalis [9] = test: Antimicrobial activity against Enterococcus faecalis GC 4555 (ATCC); Not active; 0.5-128
Staphylococcus aureus [10] = test: Antimicrobial activity against Staphylococcus aureus GC 1131 (MRSA); Not active; 0.5-128
[11] = Inhibitory activity against MurB
Streptococcus pneumoniae [12] = test: Antimicrobial activity against Streptococcus pneumoniae GC1894 (PRSP) in the presence of 4% bovine serum albumin; Not active; 0.5-8
Staphylococcus aureus [13] = test: Antimicrobial activity against Staphylococcus aureus GC 1131 (MRSA); Not active; 0.5-8
Staphylococcus aureus [14] = test: Antimicrobial activity against Staphylococcus aureus GC 4543 (MSSA); Not active; 0.5-8
Enterococcus faecalis [15] = test: Antimicrobial activity against Enterococcus faecalis GC 4555 (ATCC); Not active; 0.5-8
Streptococcus pneumoniae [16] = test: Antimicrobial activity against Streptococcus pneumoniae GC1894 (PRSP); Not active; 0.5-8
Staphylococcus [17] = test: Antimicrobial activity against MSCNS (methicillin-susceptible coagulase-negative staphylococci) GC 646; Not active; 0.5-8
Escherichia coli [18] = test: Antimicrobial activity against Escherichia coli GC 4560; Not active; 0.5-8
Enterococcus faecalis [19] = test: Antimicrobial activity against Enterococcus faecalis GC 2242 (VRE); Not active; 0.5-8
Escherichia coli [20] = test: Antimicrobial activity against Escherichia coli GC 4559; Not active; 0.5-8
Staphylococcus aureus [21] = test: Antimicrobial activity against Staphylococcus aureus GC 2216 (ATCC); Not active; 0.5-8
Streptococcus pneumoniae [22] = test: Antimicrobial activity against Streptococcus pneumoniae GC1894 (PRSP) in the presence of 4% bovine serum albumin; Not active; 16->128
Escherichia coli [23] = test: Antimicrobial activity against Escherichia coli GC 4560; Not active; 16->128
Staphylococcus aureus [24] = test: Antimicrobial activity against Staphylococcus aureus GC 1131 (MRSA); Not active; 16->128
Staphylococcus [25] = test: Antimicrobial activity against MSCNS (methicillin-susceptible coagulase-negative staphylococci) GC 646; Not active; 16->128
Staphylococcus aureus [26] = test: Antimicrobial activity against Staphylococcus aureus GC 2216 (ATCC); Not active; 16->128
Staphylococcus aureus [27] = test: Antimicrobial activity against Staphylococcus aureus GC 4543 (MSSA); Not active; 16->128
Enterococcus faecalis [28] = test: Antimicrobial activity against Enterococcus faecalis GC 2242 (VRE); Not active; 16->128
Escherichia coli [29] = test: Antimicrobial activity against Escherichia coli GC 4559; Not active; 16->128
Enterococcus faecalis [30] = test: Antimicrobial activity against Enterococcus faecalis GC 4555 (ATCC); Not active; 16->128
Streptococcus pneumoniae [31] = test: Antimicrobial activity against Streptococcus pneumoniae GC1894 (PRSP); Not active; 16->128
Streptococcus pneumoniae [32] = test: Antimicrobial activity against Streptococcus pneumoniae GC1894 (PRSP); Not active; 32-128
Staphylococcus aureus [33] = test: Antimicrobial activity against Staphylococcus aureus GC 2216 (ATCC); Not active; 32-128
Staphylococcus [34] = test: Antimicrobial activity against MSCNS (methicillin-susceptible coagulase-negative staphylococci) GC 646; Not active; 32-128
Enterococcus faecalis [35] = test: Antimicrobial activity against Enterococcus faecalis GC 2242 (VRE); Not active; 32-128
Streptococcus pneumoniae [36] = test: Antimicrobial activity against Streptococcus pneumoniae GC1894 (PRSP) in the presence of 4% bovine serum albumin; Not active; 32-128
Escherichia coli [37] = test: Antimicrobial activity against Escherichia coli GC 4559; Not active; 32-128
Escherichia coli [38] = test: Antimicrobial activity against Escherichia coli GC 4560; Not active; 32-128
Staphylococcus aureus [39] = test: Antimicrobial activity against Staphylococcus aureus GC 4543 (MSSA); Not active; 32-128
Staphylococcus aureus [40] = test: Antimicrobial activity against Staphylococcus aureus GC 1131 (MRSA); Not active; 32-128
Enterococcus faecalis [41] = test: Antimicrobial activity against Enterococcus faecalis GC 4555 (ATCC); Not active; 32-128
[42] = Inhibitory activity against MurB from Escherichia coli
Staphylococcus aureus [43] = test: Antimicrobial activity against Staphylococcus aureus GC 2216 (ATCC)
Streptococcus pneumoniae [44] = test: Antimicrobial activity against Streptococcus pneumoniae GC1894 (PRSP)
Enterococcus faecalis [45] = test: Antimicrobial activity against Enterococcus faecalis GC 2242 (VRE)
[46] = Antimicrobial activity against MSCNS (methicillin-susceptible coagulase-negative staphylococci) GC 646; details: Staphylococcus
Staphylococcus aureus [47] = test: Antimicrobial activity against Staphylococcus aureus GC 1131 (MRSA)
Escherichia coli [48] = test: Antimicrobial activity against Escherichia coli GC 4559
[49] = Inhibitory activity against MurB from Staphylococcus aureus
[50] = Inhibitory activity against MurA from Escherichia coli
Staphylococcus aureus [51] = test: Antimicrobial activity against Staphylococcus aureus GC 4543 (MSSA)
Enterococcus faecalis [52] = test: Antimicrobial activity against Enterococcus faecalis GC 4555 (ATCC)
Escherichia coli [53] = test: Antimicrobial activity against Escherichia coli GC 4560
Streptococcus pneumoniae [54] = test: Antimicrobial activity against Streptococcus pneumoniae GC1894 (PRSP) in the presence of 4% bovine serum albumin
Escherichia coli [55] = test: Antimicrobial activity against Escherichia coli GC 4559; Not active; 1-4
Streptococcus pneumoniae [56] = test: Antimicrobial activity against Streptococcus pneumoniae GC1894 (PRSP) in the presence of 4% bovine serum albumin; Not active; 1-4
Staphylococcus aureus [57] = test: Antimicrobial activity against Staphylococcus aureus GC 1131 (MRSA); Not active; 1-4
Escherichia coli [58] = test: Antimicrobial activity against Escherichia coli GC 4560; Not active; 1-4
Enterococcus faecalis [59] = test: Antimicrobial activity against Enterococcus faecalis GC 4555 (ATCC); Not active; 1-4
Staphylococcus aureus [60] = test: Antimicrobial activity against Staphylococcus aureus GC 4543 (MSSA); Not active; 1-4
Staphylococcus [61] = test: Antimicrobial activity against MSCNS (methicillin-susceptible coagulase-negative staphylococci) GC 646; Not active; 1-4
Enterococcus faecalis [62] = test: Antimicrobial activity against Enterococcus faecalis GC 2242 (VRE); Not active; 1-4
Staphylococcus aureus [63] = test: Antimicrobial activity against Staphylococcus aureus GC 2216 (ATCC); Not active; 1-4
Streptococcus pneumoniae [64] = test: Antimicrobial activity against Streptococcus pneumoniae GC1894 (PRSP); Not active; 1-4

Structure (SMILES): COC(=O)c1sccc1NC(=O)Nc1ccc(Cl)c(Cl)c1
- MIC (Staphylococcus [1]): > 128 µg/mL
- MIC (Staphylococcus aureus [2]): > 128 µg/mL
- MIC (Staphylococcus aureus [3]): > 128 µg/mL
- MIC (Escherichia coli [4]): > 128 µg/mL
- MIC (Streptococcus pneumoniae [5]): > 128 µg/mL
- MIC (Enterococcus faecalis [6]): > 128 µg/mL
- MIC (Escherichia coli [7]): > 128 µg/mL
- MIC (Streptococcus pneumoniae [8]): > 128 µg/mL
- MIC (Enterococcus faecalis [9]): > 128 µg/mL
- MIC (Staphylococcus aureus [10]): > 128 µg/mL
- IC50 [11]: 18 µg/mL (≈ 52.1 µM)

Structure (SMILES): O=C(Nc1ccc(Cl)c(Cl)c1)Nc1ccccn1
- MIC (Streptococcus pneumoniae [12]): 8 µg/mL
- MIC (Staphylococcus aureus [13]): 8 µg/mL (≈ 28.4 µM)
- MIC (Staphylococcus aureus [14]): 8 µg/mL (≈ 28.4 µM)
- MIC (Enterococcus faecalis [15]): 8 µg/mL (≈ 28.4 µM)
- MIC (Streptococcus pneumoniae [16]): 8 µg/mL (≈ 28.4 µM)
- MIC (Staphylococcus [17]): 8 µg/mL (≈ 28.4 µM)
- MIC (Escherichia coli [18]): 8 µg/mL (≈ 28.4 µM)
- MIC (Enterococcus faecalis [19]): 8 µg/mL (≈ 28.4 µM)
- MIC (Escherichia coli [20]): 8 µg/mL (≈ 28.4 µM)
- MIC (Staphylococcus aureus [21]): 8 µg/mL (≈ 28.4 µM)
- IC50 [11]: 17 µg/mL (≈ 60.3 µM)

Structure (SMILES): O=C(Nc1ccc(Cl)c(Cl)c1)Nc1nncs1
- MIC (Streptococcus pneumoniae [22]): > 128 µg/mL
- MIC (Escherichia coli [23]): > 128 µg/mL
- MIC (Staphylococcus aureus [24]): > 128 µg/mL
- MIC (Staphylococcus [25]): > 128 µg/mL
- MIC (Staphylococcus aureus [26]): > 128 µg/mL
- MIC (Staphylococcus aureus [27]): > 128 µg/mL
- MIC (Enterococcus faecalis [28]): > 128 µg/mL
- MIC (Escherichia coli [29]): > 128 µg/mL
- MIC (Enterococcus faecalis [30]): > 128 µg/mL
- IC50 [11]: > 25 µg/mL
- MIC (Streptococcus pneumoniae [31]): > 128 µg/mL

Structure (SMILES): O=C(Nc1ccc(Cl)c(Cl)c1)Nc1cccc2cccnc12
- MIC (Streptococcus pneumoniae [32]): > 128 µg/mL
- MIC (Staphylococcus aureus [33]): > 128 µg/mL
- MIC (Staphylococcus [34]): > 128 µg/mL
- MIC (Enterococcus faecalis [35]): > 128 µg/mL
- MIC (Streptococcus pneumoniae [36]): > 128 µg/mL
- MIC (Escherichia coli [37]): > 128 µg/mL
- MIC (Escherichia coli [38]): > 128 µg/mL
- MIC (Staphylococcus aureus [39]): > 128 µg/mL
- MIC (Staphylococcus aureus [40]): > 128 µg/mL
- MIC (Enterococcus faecalis [41]): > 128 µg/mL
- IC50 [11]: > 25 µg/mL

Structure (SMILES): N#Cc1cnc(NC(=O)OCc2ccc(Cl)c(Cl)c2)s1
- IC50 [42]: > 25 µg/mL
- MIC (Staphylococcus aureus [43]): > 128 µg/mL
- MIC (Streptococcus pneumoniae [44]): 128 µg/mL (≈ 390 µM)
- MIC (Enterococcus faecalis [45]): 64 µg/mL (≈ 195 µM)
- MIC [46]: > 128 µg/mL
- MIC (Staphylococcus aureus [47]): > 128 µg/mL
- MIC (Escherichia coli [48]): > 128 µg/mL
- IC50 [49]: 24 µg/mL (≈ 73.1 µM)
- IC50 [50]: > 25 µg/mL
- MIC (Staphylococcus aureus [51]): > 128 µg/mL
- MIC (Enterococcus faecalis [52]): 64 µg/mL (≈ 195 µM)
- MIC (Escherichia coli [53]): > 128 µg/mL
- MIC (Streptococcus pneumoniae [54]): > 128 µg/mL

Structure (SMILES): N#Cc1cnc(NC(=O)NCc2ccc(Cl)c(Cl)c2)s1
- IC50 [42]: > 25 µg/mL
- MIC (Staphylococcus aureus [43]): > 128 µg/mL
- MIC (Streptococcus pneumoniae [44]): 64 µg/mL (≈ 196 µM)
- MIC (Enterococcus faecalis [45]): 64 µg/mL (≈ 196 µM)
- MIC [46]: > 128 µg/mL
- MIC (Staphylococcus aureus [47]): > 128 µg/mL
- MIC (Escherichia coli [48]): > 128 µg/mL
- IC50 [49]: 24 µg/mL (≈ 73.4 µM)
- IC50 [50]: > 25 µg/mL
- MIC (Staphylococcus aureus [51]): > 128 µg/mL
- MIC (Enterococcus faecalis [52]): > 128 µg/mL
- MIC (Escherichia coli [53]): > 128 µg/mL
- MIC (Streptococcus pneumoniae [54]): 128 µg/mL

Structure (SMILES): COC(=O)c1cnn(C)c1NC(=O)Nc1ccc(Cl)c(Cl)c1
- MIC (Escherichia coli [55]): 4 µg/mL (≈ 11.7 µM)
- MIC (Streptococcus pneumoniae [56]): 4 µg/mL
- MIC (Staphylococcus aureus [57]): 4 µg/mL (≈ 11.7 µM)
- MIC (Escherichia coli [58]): 4 µg/mL (≈ 11.7 µM)
- MIC (Enterococcus faecalis [59]): 4 µg/mL (≈ 11.7 µM)
- MIC (Staphylococcus aureus [60]): 4 µg/mL (≈ 11.7 µM)
- MIC (Staphylococcus [61]): 4 µg/mL (≈ 11.7 µM)
- MIC (Enterococcus faecalis [62]): 4 µg/mL (≈ 11.7 µM)
- MIC (Staphylococcus aureus [63]): 4 µg/mL (≈ 11.7 µM)
- MIC (Streptococcus pneumoniae [64]): 4 µg/mL (≈ 11.7 µM)
- IC50 [11]: 23 µg/mL (≈ 67 µM)

Structure (SMILES): Cc1ccc(NC(=O)Nc2nc(C(C)(C)C)c(C#N)s2)cc1C
- IC50 [42]: 6.2 µg/mL (≈ 18.9 µM)
- MIC (Staphylococcus aureus [43]): 0.25 µg/mL (≈ 0.761 µM)
- MIC (Streptococcus pneumoniae [44]): < 0.12 µg/mL
- MIC (Enterococcus faecalis [45]): 0.5 µg/mL (≈ 1.52 µM)
- MIC [46]: 0.5 µg/mL (≈ 1.52 µM)
- MIC (Staphylococcus aureus [47]): 0.5 µg/mL (≈ 1.52 µM)
- MIC (Escherichia coli [48]): > 128 µg/mL
- IC50 [49]: 6.3 µg/mL (≈ 19.2 µM)
- IC50 [50]: > 25 µg/mL
- MIC (Staphylococcus aureus [51]): 0.25 µg/mL (≈ 0.761 µM)
- MIC (Enterococcus faecalis [52]): 0.5 µg/mL (≈ 1.52 µM)
- MIC (Escherichia coli [53]): 2 µg/mL (≈ 6.09 µM)
- MIC (Streptococcus pneumoniae [54]): 128 µg/mL

From ChEMBL document CHEMBL1137071, “Phenyl thiazolyl urea and carbamate derivatives as new inhibitors of bacterial cell-wall biosynthesis” (Bioorg Med Chem Lett, 2004)
